For 28 compounds, IC50 and IC90 results are on record in ChEMBL document CHEMBL4483862, “Open-source discovery of chemical leads for next-generation chemoprotective antimalarials” (2018).

This test deals with Plasmodium berghei. Nature of the test: Luciferase/luciferin-expressing antifolate-resistant parasites were used to infect a culture of HepG2 cells that were pre-incubated with compounds. Infected hepatocytes emit light due to the luciferase reaction. Assay results are presented as the percent inhibition of light emission compared to control. […]. It counts as functional. The conditions noted are these: sporozoite; for IC90: read-out: LUCIFERASE INFECTION ASSAY - IC90.

`O=c1c2ccccc2cnn1-c1nc2ccccc2[nH]1`: the IC90 is over 10 µM. Where the note is “HEPG2TOX_HILL_SLOPE 1.61, HEPG2TOX_R_SQUARED 0.823, PBLUC_HILL_SLOPE 0.454, PBLUC_R_SQUARED 0.451, read-out: LUCIFERASE INFECTION ASSAY - IC50”, the IC50 amounted to 4950 nM.

For `CC(C)(C)c1cc(C(=O)/C(C#N)=N/Nc2cccc(Cl)c2)no1`, the IC90 is 9.64 µM. Further, the IC50 (HEPG2TOX_HILL_SLOPE 1.6, HEPG2TOX_R_SQUARED 0.978, PBLUC_HILL_SLOPE 25.6, PBLUC_R_SQUARED 0.306, read-out: LUCIFERASE INFECTION ASSAY - IC50) is 8850 nM.

`O=C(NCc1ccc(Oc2ccc(F)cc2)cc1)C1Cc2ccccc2O1` (stereo unspecified): the IC90 was determined as 3.84 µM. For the same compound, the IC50 (HEPG2TOX_HILL_SLOPE 1.58, HEPG2TOX_R_SQUARED 0.911, PBLUC_HILL_SLOPE 12.2, PBLUC_R_SQUARED 0.351, read-out: LUCIFERASE INFECTION ASSAY - IC50) came to 3210 nM.

Take `COc1cn(-c2ccccc2)nc1C(=O)N1CCc2ccccc21`: the IC90 was 0.243 µM. Besides, the IC50 (HEPG2TOX_HILL_SLOPE 1.58, HEPG2TOX_R_SQUARED 0.907, PBLUC_HILL_SLOPE 2.39, PBLUC_R_SQUARED 0.888, read-out: LUCIFERASE INFECTION ASSAY - IC50) was 97.2 nM.

Consider `CN(C)c1ccc(-c2cc(Nc3cccc(OCc4ccccc4)c3)ncn2)cc1`, for which the IC90 was 1.61 µM. Moreover, where the note is “HEPG2TOX_HILL_SLOPE 1.6, HEPG2TOX_R_SQUARED 0.897, PBLUC_HILL_SLOPE 1.97, PBLUC_R_SQUARED 0.838, read-out: LUCIFERASE INFECTION ASSAY - IC50”, the IC50 turned out to be 526 nM.

Regarding `CC(=O)Nc1ccccc1OS(=O)(=O)c1ccc(N2CCCC2=O)cc1`, the IC90 stood at 1.38 µM. Moreover, the IC50 (HEPG2TOX_HILL_SLOPE 1.61, HEPG2TOX_R_SQUARED 0.866, PBLUC_HILL_SLOPE 5.07, PBLUC_R_SQUARED 0.799, read-out: LUCIFERASE INFECTION ASSAY - IC50) came to 894 nM.

On to `Cn1c(-c2cc3c(s2)CCC(C(C)(C)C)C3)n[nH]c1=S` (stereo unspecified), for which the IC90 was determined as 7.62 µM. Also, for the setting “HEPG2TOX_HILL_SLOPE 1.61, HEPG2TOX_R_SQUARED 0.989, PBLUC_HILL_SLOPE 2.28, PBLUC_R_SQUARED 0.71, read-out: LUCIFERASE INFECTION ASSAY - IC50”, the IC50 turned out to be 2900 nM.

For `CN(C)CCNC(=O)c1ccc(-c2cn3c(-c4ccc5ncccc5c4)cnc3cn2)cc1`, the IC90 is over 7.56 µM. In addition, the IC50 (HEPG2TOX_HILL_SLOPE 1.62, HEPG2TOX_R_SQUARED 0.706, PBLUC_HILL_SLOPE 13, PBLUC_R_SQUARED 0.311, read-out: LUCIFERASE INFECTION ASSAY - IC50) is 6520 nM.

For the compound `COC1CC(O[C@H]2CC[C@]3(C)C4CC[C@]5(C)[C@@H](C6=CC(=O)OC6)CC[C@]5(O)[C@@H]4CC[C@]3(O)C2)OC(C)C1O` (stereo partly specified), the IC90 came to 0.177 µM. Under “HEPG2TOX_HILL_SLOPE 1.6, HEPG2TOX_R_SQUARED 0.898, PBLUC_HILL_SLOPE 2.36, PBLUC_R_SQUARED 0.616, read-out: LUCIFERASE INFECTION ASSAY - IC50”, the concentration for half-maximal inhibition (IC50) came to 69.8 nM.

Regarding `CNC(=O)c1cccc(-c2ccc3ncc(-c4cccc(C(F)(F)F)c4)n3n2)c1`, the IC90 is 2.95 µM. The IC50 (HEPG2TOX_HILL_SLOPE 1.58, HEPG2TOX_R_SQUARED 0.903, PBLUC_HILL_SLOPE 3.01, PBLUC_R_SQUARED 0.663, read-out: LUCIFERASE INFECTION ASSAY - IC50) is 1420 nM.

In the case of `O=C(NCc1ccc(N2CCCC2=O)cc1)c1cccnc1OCC(F)(F)F`, the IC90 came to 4.11 µM. The IC50 (HEPG2TOX_HILL_SLOPE 1.59, HEPG2TOX_R_SQUARED 0.969, PBLUC_HILL_SLOPE 1.45, PBLUC_R_SQUARED 0.646, read-out: LUCIFERASE INFECTION ASSAY - IC50) is 899 nM.

Regarding `Cc1c(-c2ccccc2)sc2[nH]c(CC(N)=O)nc(=O)c12`, the IC90 came out at 1.59 µM. Further, the IC50 (HEPG2TOX_HILL_SLOPE 1.61, HEPG2TOX_R_SQUARED 0.893, PBLUC_HILL_SLOPE 16.8, PBLUC_R_SQUARED 0.567, read-out: LUCIFERASE INFECTION ASSAY - IC50) amounted to 1390 nM.

Regarding `COc1cc(Nc2cncc(-c3ccc(N)cc3)n2)cc(OC)c1OC`, the concentration for an effect of 90% (IC90) is 1.84 µM. Besides, for the setting “HEPG2TOX_HILL_SLOPE 1.6, HEPG2TOX_R_SQUARED 0.917, PBLUC_HILL_SLOPE 3.36, PBLUC_R_SQUARED 0.719, read-out: LUCIFERASE INFECTION ASSAY - IC50”, the IC50 stood at 955 nM.

Regarding `CC(C)c1ccc(Nc2nccc3nc(-c4ccc(F)c(F)c4)[nH]c23)cc1`, the IC90 is over 10 µM. For the same compound, for the setting “HEPG2TOX_HILL_SLOPE 1.58, HEPG2TOX_R_SQUARED 0.81, PBLUC_HILL_SLOPE 0.658, PBLUC_R_SQUARED 0.852, read-out: LUCIFERASE INFECTION ASSAY - IC50”, the IC50 is 969 nM.

On to `CNc1ccc2ncc(-c3ccc(OC)nc3)n2n1`, for which the IC90 was 12.8 µM. Besides, the IC50 (HEPG2TOX_HILL_SLOPE 1.61, HEPG2TOX_R_SQUARED 0.963, PBLUC_HILL_SLOPE 2.26, PBLUC_R_SQUARED 0.378, read-out: LUCIFERASE INFECTION ASSAY - IC50) came out at 4850 nM.

Regarding `Cc1cc(C(=O)Nc2nc3cc(C(F)(F)F)ccc3n2Cc2ccco2)c2c(C)noc2n1`, the IC90 came out at 3.24 µM. Further, the IC50 (HEPG2TOX_HILL_SLOPE 1.6, HEPG2TOX_R_SQUARED 0.983, PBLUC_HILL_SLOPE 3.8, PBLUC_R_SQUARED 0.87, read-out: LUCIFERASE INFECTION ASSAY - IC50) was determined as 1820 nM.

Regarding `CCN1C(=Cc2cc(C)[n+](CCCN3CCOCC3)c(C)c2)Sc2ccccc21`, the 90% effect concentration (IC90) worked out at 5.67 µM. Further, the IC50 (HEPG2TOX_HILL_SLOPE 1.6, HEPG2TOX_R_SQUARED 0.978, PBLUC_HILL_SLOPE 2.92, PBLUC_R_SQUARED 0.557, read-out: LUCIFERASE INFECTION ASSAY - IC50) was determined as 2670 nM.

Turning to `COC(=O)C1=C(C)N(c2cccc(C(F)(F)F)c2)C(=S)NC1c1ccc(O)c(OC)c1` (stereo unspecified), the IC90 is 1.57 µM. Besides, the IC50 (HEPG2TOX_HILL_SLOPE 1.61, 1.73, HEPG2TOX_R_SQUARED 0.946, 0.571, PBLUC_HILL_SLOPE 8.66, 0.516, PBLUC_R_SQUARED 0.631, 0.614, read-out: LUCIFERASE INFECTION ASSAY - IC50) was determined as 906 nM.

Regarding `Cc1nn(-c2ccccc2)c2sc(C(=O)NNc3nc(CN4CCOCC4)nc4scc(-c5ccccc5)c34)cc12`, the IC90 was over 10 µM. Also, the IC50 (HEPG2TOX_HILL_SLOPE 1.59, 8.29, HEPG2TOX_R_SQUARED 0.901, 0.855, PBLUC_HILL_SLOPE 12, PBLUC_R_SQUARED 0.591, read-out: LUCIFERASE INFECTION ASSAY - IC50) is 8460 nM.

Take `Cc1cc(C)cc(-n2c(C)cc(C(=O)CNC(=O)NCc3ccccc3)c2C)c1`: the IC90 turned out to be 3.27 µM. The IC50 (HEPG2TOX_HILL_SLOPE 1.59, HEPG2TOX_R_SQUARED 0.958, PBLUC_HILL_SLOPE 2.43, PBLUC_R_SQUARED 0.455, read-out: LUCIFERASE INFECTION ASSAY - IC50) turned out to be 1320 nM.

On to `COc1ccccc1NC(=O)/C=c1\s/c(=C\c2cnn(-c3ccccc3)c2)c(=O)n1C`, for which the IC90 came to 0.632 µM. The IC50 (HEPG2TOX_HILL_SLOPE 1.6, HEPG2TOX_R_SQUARED 0.888, PBLUC_HILL_SLOPE 1.61, PBLUC_R_SQUARED 0.941, read-out: LUCIFERASE INFECTION ASSAY - IC50) is 161 nM.

Regarding `CC(C)(C)c1n[nH]c2c(-c3nc4ccccc4s3)c(N)nn2c1=O`, the IC90 came out at 5.67 µM. Besides, the IC50 (HEPG2TOX_HILL_SLOPE 1.58, HEPG2TOX_R_SQUARED 0.969, PBLUC_HILL_SLOPE 3.76, PBLUC_R_SQUARED 0.505, read-out: LUCIFERASE INFECTION ASSAY - IC50) was 3160 nM.

As to `Cc1ccc(S(=O)(=O)N2CCC[C@H]2C(=O)Nc2ccc(-c3nc4ccccc4[nH]3)cc2)cc1`, the IC90 is over 10 µM. In addition, the IC50 (HEPG2TOX_HILL_SLOPE 1.59, HEPG2TOX_R_SQUARED 0.747, PBLUC_HILL_SLOPE 12.8, PBLUC_R_SQUARED 0.235, read-out: LUCIFERASE INFECTION ASSAY - IC50) is 8440 nM.

On to `Cn1ccc2cc(-c3cn4c(-c5cccc(F)c5)cnc4cn3)ccc21`, for which the IC90 came to 2.18 µM. The IC50 (HEPG2TOX_HILL_SLOPE 1.6, HEPG2TOX_R_SQUARED 0.918, PBLUC_HILL_SLOPE 3.4, PBLUC_R_SQUARED 0.713, read-out: LUCIFERASE INFECTION ASSAY - IC50) amounted to 1140 nM.

Consider `N#Cc1ccc(CN2CCN(CC(=O)Nc3nc(-c4c[nH]c5ccccc45)cs3)CC2)cc1`, for which the IC90 turned out to be 3.45 µM. For the same compound, the IC50 (HEPG2TOX_HILL_SLOPE 1.59, HEPG2TOX_R_SQUARED 0.927, PBLUC_HILL_SLOPE 64.1, PBLUC_R_SQUARED 0.488, read-out: LUCIFERASE INFECTION ASSAY - IC50) was 3330 nM.

Take `O=C(NNC(=O)c1sc(-c2ccco2)nc1-c1ccccc1)c1ccccn1`: the IC90 came out at 3.33 µM. Moreover, the IC50 (HEPG2TOX_HILL_SLOPE 1.58, HEPG2TOX_R_SQUARED 0.893, PBLUC_HILL_SLOPE 37.6, PBLUC_R_SQUARED 0.722, read-out: LUCIFERASE INFECTION ASSAY - IC50) was 3140 nM.

On to `Nc1nccnc1C(=O)NNC(=O)COc1ccccc1Cc1ccccc1`, for which the IC90 is 3.67 µM. For the same compound, the IC50 (HEPG2TOX_HILL_SLOPE 1.59, HEPG2TOX_R_SQUARED 0.794, PBLUC_HILL_SLOPE 15.4, PBLUC_R_SQUARED 0.41, read-out: LUCIFERASE INFECTION ASSAY - IC50) was determined as 3180 nM.

In the case of `COc1cc(/C=C/C(=O)Nc2ccc3c(c2)nc2n3CCCCC2)ccc1OS(=O)(=O)c1ccc(C)cc1`, the 90% effect concentration (IC90) was 8.3 µM. Besides, the IC50 (HEPG2TOX_HILL_SLOPE 1.59, HEPG2TOX_R_SQUARED 0.591, PBLUC_HILL_SLOPE 1.96, PBLUC_R_SQUARED 0.277, read-out: LUCIFERASE INFECTION ASSAY - IC50) amounted to 2710 nM.

The IC50 is the point on the concentration scale where inhibition reaches its midpoint. For orientation: IC90 means the point of the concentration-response curve where the effect stands at 90%.
